Assay results: patent publication US7713923B2, “Self-assembling peptides incorporating modifications and methods of use thereof” (Massachusetts Institute of Technology, priority 2003, dated 2010)

What was measured:
Liver progenitor cells = settings: encapsulated cells; cited from earlier work
[1] = tested on: human aortic endothelial cells (HAEC); test: NO release determination (Griess method); type: cell-based; settings: nitrite in culture supernatant; RAD16-I 100%, others 9:1 blend
Procedure: NO release determination. Nitric oxide (NO) release was estimated by measuring nitrites (NOx) by the Griess method. Briefly, the media was replaced after the third day of culture by new media without fetal bovine serum (FBS) or ascorbic acid. The next day, the media was used to analyze NO release using a commercially available kit (482702, Calbiochem, CA) following the manufacturer instructions. Each condition was tested in triplicate.

[2] = Rheometry (dynamic frequency and time sweep); type: physicochemical
Procedure: Rheometry. Rheological assays were performed on a 50 mm parallel plate ARES strain controlled rheometer (Rheometric Scientific, NJ). Samples were dissolved in deionized water at a final concentration of 2.9 mM and sonicated for one hour the day prior to the analysis. A volume of 1 ml was loaded on the lower plate, and the upper plate was set to a gap size between 0.4-0.45 mm. Dynamic frequency sweep tests were performed in a range of frequencies from 100 to 0.1 radis. After the test, PBS was added around the lower plate in order to promote gelation. The peptide was allowed to gel for 10 min at room temperature before the test was performed once again. After a dynamic frequency sweep test, the behavior of samples over time was tested. A dynamic time sweep test was performed at 10 rad/s for 5 min.
Rheology. A dynamic strain sweep was first performed on RAD16-I to set the linear viscoelastic region of the test and to select a fixed strain for the dynamic frequency sweep tests (FIG. 19). This linear viscoelastic range is defined by constant moduli, G′ and G″. It is important to select a strain within this range to obtain reliable results (Schramm, 1994). The strain selected was 0.01 (dimensionless) and was applied in all assays.

[3] = Gel formation by visual observation; type: physicochemical; settings: 1% solution, standing overnight at room temperature, no PBS
Procedure: The peptides used in the examples are based on the self-assembling peptide RAD16-I. The peptide was modified to include a variety of peptide motifs previously identified as mediating various biological activities. Physicochemical and structural properties of the peptides were assessed using a variety of techniques. Peptide solubility in aqueous solution was tested. The ability of the peptides to self-assemble into higher order structures was examined. In particular, the ability of the peptides to form various secondary structures (e.g., β-sheet) was determined using circular dichroism. The ability of the peptides to self-assemble into nanofibers was evaluated using atomic force microscopy (AFM). Gel formation was assessed by visual observation and rheology.
Gel formation. Each peptide solution at 1% was used to assess hydrogel formation. […] For all the soluble peptides, gel formation was readily observed upon the addition of equal volumes of phosphate buffered saline (PBS).

For `CC(=O)N[C@@H](CCCNC(=N)N)C(=O)N[C@@H](C)C(=O)N[C@@H](CC(=O)O)C(=O)N[C@@H](C)C(=O)N[C@@H](CCCNC(=N)N)C(=O)N[C@@H](C)C(=O)N[C@@H](CC(=O)O)C(=O)N[C@@H](C)C(=O)N[C@@H](CCCNC(=N)N)C(=O)N[C@@H](C)C(=O)N[C@@H](CC(=O)O)C(=O)N[C@@H](C)C(=O)N[C@@H](CCCNC(=N)N)C(=O)N[C@@H](C)C(=O)N[C@@H](CC(=O)O)C(=O)N[C@@H](C)C(N)=O` [RAD16-I, AcN-(RADA)4-CONH2], which hepatocyte marker expression (Liver progenitor cells) is on record?
The hepatocyte marker expression was “expressed markers indicative of hepatocyte phenotype”.

And the “nitric oxide (NO) release by HAEC” value [1]?
Its value is “promote NO release”.

And the “increase of both moduli (G′, G″) upon addition of salts” value ([2]; PBS added, 10 minutes gelation)?
Its value is “≈ 10 fold”.

And the “storage modulus G′” value ([2]; after addition of PBS, dynamic frequency sweep, strain 0.01, 2.9 mM peptide)?
Its value is 2.5×10^3 Pa.

And the “Increased viscosity by visual inspection” value [3]?
Its value is “Increased viscosity was observed”.
